Test results published in ChEMBL document CHEMBL3108686, “Cytotoxic dammarane-type triterpenoids from the stem bark of Dysoxylum binecteriferum” (J Nat Prod, 2014).

Assays:
HepG2 = test: Cytotoxicity against human HepG2 cells assessed as cell viability after 48 hrs by MTT assay; assay type: functional, cell-based; details: HepG2, 48 h
RAW264.7 = test: Antiinflammatory activity in mouse RAW264.7 cells assessed as inhibition of LPS-stimulated nitric oxide production after 24 hrs by Griess assay; assay type: functional, cell-based; details: RAW264.7, 24 h
A549 = test: cells; details: Homo sapiens, A549, 48 h
Description: Cytotoxicity against human A549 cells assessed as cell viability after 48 hrs by MTT assay

MCF7 = test: Cytotoxicity against human MCF7 cells assessed as cell viability after 48 hrs by MTT assay; assay type: functional, cell-based; details: MCF7, 48 h

Structure (SMILES)	IC50 (HepG2) [µM]	IC50 (RAW264.7) [µM]	IC50 (A549) [µM]	IC50 (MCF7) [µM]
C=C(CC[C@H](O)C(C)(C)O)[C@H]1CC[C@]2(C)[C@@H]1CC[C@@H]1[C@@]3(C)CC[C@@H](O)C(C)(C)[C@@H]3CC[C@]12C	5.9	> 100	35	16.7
C=C(C)[C@@H]1CC[C@]2(C)[C@H](CC[C@@H]3[C@@H]([C@]4(C)CC[C@@H](C(C)(C)O)O4)CC[C@]32C)[C@@]1(C)CCC(=O)OC	> 50	> 100	> 50	> 50
C=C(C)[C@@H]1CC[C@]2(C)[C@H](CC[C@@H]3[C@@H]([C@]4(C)CC[C@H](C(C)(C)O)O4)CC[C@]32C)[C@@]1(C)CCC(=O)OCC	14.9	> 100	12.9	18.4
C=C(C)[C@@H]1CC[C@]2(C)[C@H](CC[C@@H]3[C@@H]([C@]4(C)CCC(=O)O4)CC[C@]32C)[C@@]1(C)CCC(=O)OCC	38.4	> 100	> 50	> 50
C=C(C)[C@@H]1CC[C@]2(C)[C@H](CC[C@@H]3[C@@H]([C@]4(C)CCC(=O)O4)CC[C@]32C)[C@@]1(C)CCC(=O)OC	> 50	31.8	> 50	> 50
C=C(C)[C@@H]1CC[C@]2(C)[C@H](CC[C@@H]3[C@@H]([C@]4(C)CCC(=O)O4)CC[C@]32C)[C@@]1(C)CCC(=O)O	> 50	> 100	> 50	> 50
CC(C)(O)[C@@H]1CC[C@@](C)([C@H]2CC[C@]3(C)[C@@H]2CC[C@@H]2[C@@]4(C)CC[C@@H](O)C(C)(C)[C@@H]4CC[C@]23C)O1	> 50	> 100	> 50	> 50
CC(C)(O)[C@@H]1CC[C@@](C)([C@H]2CC[C@]3(C)[C@@H]2CC[C@@H]2[C@@]4(C)CC[C@@H](O)[C@@](C)(CO)[C@@H]4CC[C@]23C)O1	20.2	64.9	> 50	30.4
CC(C)(O)[C@H]1CC[C@@](C)([C@H]2CC[C@]3(C)[C@@H]2CC[C@@H]2[C@@]4(C)CC[C@@H](O)[C@@](C)(CO)[C@@H]4CC[C@]23C)O1	> 50	> 100	> 50	23
CC(C)(O)[C@H]1CC[C@@](C)([C@H]2CC[C@]3(C)[C@@H]2CC[C@@H]2[C@@]4(C)CCC(=O)[C@@](C)(CO)[C@@H]4CC[C@]23C)O1	> 50	> 100	> 50	> 50
CC(C)(O)[C@@H]1CC[C@@](C)([C@H]2CC[C@]3(C)[C@@H]2CC[C@@H]2[C@@]4(C)CCC(=O)[C@@](C)(CO)[C@@H]4CC[C@]23C)O1	6.5	> 100	28.2	18.3
CC(C)(O)[C@@H]1CC[C@@](C)([C@H]2CC[C@]3(C)[C@@H]2CC[C@@H]2[C@@]4(C)CCC(=O)[C@](C)(CO)[C@@H]4CC[C@]23C)O1	> 50	> 100	> 50	> 50
CC(C)(O)[C@@H]1CC[C@@](C)([C@H]2CC[C@]3(C)[C@@H]2CC[C@@H]2[C@@]4(C)CCC(=O)C(C)(C)[C@@H]4C[C@H](O)[C@]23C)O1	> 50	> 100	> 50	> 50
CC1(C)[C@H](O)CC[C@]2(C)[C@H]3CC[C@@H]4[C@@H]([C@]5(C)C=CC(=O)O5)CC[C@@]4(C)[C@]3(C)CC[C@@H]12	> 50	> 100	> 50	> 50
CC1(C)C(=O)CC[C@]2(C)[C@H]3CC[C@@H]4[C@@H]([C@]5(C)C[C@H](O)C(=O)O5)CC[C@@]4(C)[C@]3(C)CC[C@@H]12	8	> 100	12.4	26.7
C=C(CO)[C@@H]1CC[C@]2(C)[C@H](CC[C@@H]3[C@@H]([C@]4(C)CC[C@@H](C(C)(C)O)O4)CC[C@]32C)[C@@]1(C)CCC(=O)OC	28	> 100	> 50	> 50
C=C(C)[C@@H]1CC[C@]2(C)[C@H](CC[C@@H]3[C@@H]([C@]4(C)CC[C@H](O)C(C)(C)O4)CC[C@]32C)[C@@]1(C)CCC(=O)OC	> 50	> 100	> 50	> 50
CCOC(=O)CC[C@@]1(C)[C@H]([C@@](C)(O)CO)CC[C@]2(C)[C@@H]1CC[C@@H]1[C@@H]([C@]3(C)CC[C@H](C(C)(C)O)O3)CC[C@]12C	> 50	57.7	> 50	> 50
CCOC(=O)CC[C@@]1(C)[C@H]([C@@](C)(O)CO)CC[C@]2(C)[C@@H]1CC[C@@H]1[C@@H]([C@]3(C)CC[C@@H](C(C)(C)O)O3)CC[C@]12C	> 50	> 100	> 50	> 50
CCOC(=O)CC[C@@]1(C)[C@H]([C@](C)(O)CO)CC[C@]2(C)[C@@H]1CC[C@@H]1[C@@H]([C@]3(C)CC[C@@H](C(C)(C)O)O3)CC[C@]12C	> 50	> 100	> 50	> 50
CCOC(=O)CC[C@@]1(C)[C@H]([C@](C)(O)CO)CC[C@]2(C)[C@@H]1CC[C@@H]1[C@@H]([C@]3(C)CC[C@H](C(C)(C)O)O3)CC[C@]12C	> 50	> 100	> 50	> 50
CC(C)(O)[C@H]1CC[C@@](C)([C@H]2CC[C@]3(C)[C@@H]2CC[C@@H]2[C@@]4(C)CC[C@@H](O)C(C)(C)[C@@H]4CC[C@]23C)O1	> 50	> 100	> 50	> 50
CC1(C)[C@H](O)CC[C@]2(C)[C@H]3CC[C@@H]4[C@@H]([C@]5(C)CCC(=O)O5)CC[C@@]4(C)[C@]3(C)CC[C@@H]12 [CABRALEAHYDROXYLACTONE]	> 50	> 100	> 50	> 50
CC1(C)C(=O)CC[C@]2(C)[C@H]3CC[C@@H]4[C@@H]([C@]5(C)CCC(=O)O5)CC[C@@]4(C)[C@]3(C)CC[C@@H]12 [CABRALELACTONE]	> 50	> 100	> 50	> 50
C=C(C)[C@@H]1CC[C@]2(C)[C@H](CC[C@@H]3[C@@H]([C@]4(C)CC[C@H](C(C)(C)O)O4)CC[C@]32C)[C@@]1(C)CCC(=O)OC [METHYL SHOREATE]	6.3	> 100	12.9	5.6
